Experimental data reported in patent US20250027930A1, “SMALL MOLECULES FOR REPROGRAMING ANTI-TUMOR IMMUNITY OF T CELLS” (THE SCRIPPS RESEARCH INSTITUTE, priority 2021, published 2025).

Key:
OT-I splenocytes = test: OT-I splenocyte culture with purine/pyrimidine pathway compounds; format: cell-based, mouse
Method: We therefore tested if purine and pyrimidine nucleotides have similar effects as N-Acetylneuraminic acid to help maintain less differentiated phenotypes of T cells during expansion. OT-I splenocytes were cultured with 500 nM […] peptide (OVA257-264) for three days at initial cell density of 1×10^6/mL to activate and expand the CD8+ T cell population. Different concentrations of the products or intermediates in purine or pyrimidine de novo synthesis pathways were added on day 3. The tested compounds include, e.g., guanosine, deoxyguanosine, adenosine, deoxyadenosine, inosine, xanthosine, orotidine, uridine, cytidine, deoxycytidine, thymidine, deoxythymidine, 5-Aminoimidazole-4-carboxamide ribonucleotide (AICAR), orotate, and dihydroorotate. The phenotype of expanded T cells were analyzed on day 5.

P14 cells = test: P14 splenocyte in vitro activation, re-stimulation and expansion; format: cell-based, mouse; settings: for Fold of proliferation, Normalized to W/O: P14 cells
OT-1 cells [1] = test: OT-1 cells treated with K+ or p38i; format: cell-based, mouse
Source text: We also tested two small molecules (KCl and p38i) reported in papers. (Science 2019, 363, (6434); Cancer Cell 2020, 37, (6), 818-833 e9).

OT-1 cells [2] = test: OT-I-Tcf7GFP splenocyte screen: proliferation and Tim3−TCF-1+ ratio; format: cell-based, mouse; settings: Day7; for Tim3^−TCF-1^+ ratio of CD8^+ T cells (%): w/o 2.6
Method: Cell number was recorded on day 3 and day 7. On day 7, cells were stained with anti-CD8a (PerCP-Cy5.5) and anti-Tim3 (BV421) antibodies for flow cytometry or plate reader analysis.
Because TCF1 expression positively correlates with T cell stemness, the greater signal of EGFP a T cell expresses, the less differentiated the T cell is. Furthermore, if the compound also facilitates T cells proliferation, there would be more T cells per well in comparison to the untreated control. Therefore, a compound that not only maintains TCF-1 expression but also facilitates T cell growth would produce the strongest green fluorescence intensity. […] GlcA stands for glucuronic acid.

P14 CD8+ T cells = format: in vivo, mouse; settings: 14 dpi LCMV-Cl13; cells treated in vitro, vs untreated
OT-1 CD8+ T cells = test: OT-1 splenocyte activation and expansion, day 7 flow cytometry; format: cell-based, mouse; settings: OT-1 cells day 7; compared with fructose or sucrose
Method: Naïve splenocytes from OT-1 mice were stimulated in vitro with OVA257-264 (500 nM) and IL-2 (60 IU/mL) in the presence or absence of an added compound for 3 days at a density of 1 million/mL (100 uL/well in 96/well plate), then expanded for 4 days. On day 7, PD-1, Tim3 and TCF-1 expressions were assessed by flow cytometry by staining cells with anti-CD8a (PerCP-Cy5.5), anti-Tim3 (BV421) and anti-TCF-1 (AF488) antibodies. For adoptive transfer, 0.6M B16-OVA cells (6×10^5) were inoculated subcutaneously 3 to 5 days before transfer in C57BL/6. On the day of adoptive transfer, mice were irradiated with 5 Gy X-ray, randomized according to tumor size, and intravenously injected with 0.2-0.3M of CD8+OT-1 T cells (2×10^5) expanded under different conditions, followed by administration of 50000 IU IL-2 every 12 h for four days. In the control group, mice were injected with cell-free vehicle only. For assessment of adoptive transfer of OT-1 CD8+ T cells activated and expanded by contacting the cells with fructose, on day 9 after transfer, anti-PD-1 (100 ug/mouse) was administered to the mice that had received T cell transfer. For assessment of adoptive transfer of OT-1 CD8+ T cells activated and expanded by contacting cells with Neu5Ac, on day 14 and day 21 after transfer, anti-PD-1 (100 ug/mouse) was administered to the mice that had received T cell transfer. The tumor growth was monitored every 3 to 4 days by measuring tumor size. Percent survival was also monitored and recorded within a period of 40 days post treatment. To evaluate tumor infiltrating OT-1 T cells, 0.6M B16-OVA cells (6×10^5) were inoculated subcutaneously 3 to 5 days before transfer in C57BL/6. […] Tumors were then isolated and assessed for percentage of OT-I T cells from the total CD8+ T cells and OT-1 T cell number per gram of tumor tissue. […] On day 7 or 8 cells were taken and analyzed by assessment of ROS, NADPH/NADP+ ratio, and GSH/GSSG ratio.

B16-OVA tumor = format: in vivo, mouse; settings: adoptive transfer of sugar-treated OT-1 T cells; vs untreated T cells
Method: Naïve splenocytes from OT-1 mice were stimulated in vitro with OVA257-264 (500 nM) and IL-2 (60 IU/mL) in the presence or absence of an added compound for 3 days at a density of 1 million/mL (100 uL/well in 96/well plate), then expanded for 4 days. On day 7, PD-1, Tim3 and TCF-1 expressions were assessed by flow cytometry by staining cells with anti-CD8a (PerCP-Cy5.5), anti-Tim3 (BV421) and anti-TCF-1 (AF488) antibodies. For adoptive transfer, 0.6M B16-OVA cells (6×10^5) were inoculated subcutaneously 3 to 5 days before transfer in C57BL/6. On the day of adoptive transfer, mice were irradiated with 5 Gy X-ray, randomized according to tumor size, and intravenously injected with 0.2-0.3M of CD8+OT-1 T cells (2×10^5) expanded under different conditions, followed by administration of 50000 IU IL-2 every 12 h for four days. In the control group, mice were injected with cell-free vehicle only. For assessment of adoptive transfer of OT-1 CD8+ T cells activated and expanded by contacting the cells with fructose, on day 9 after transfer, anti-PD-1 (100 ug/mouse) was administered to the mice that had received T cell transfer. For assessment of adoptive transfer of OT-1 CD8+ T cells activated and expanded by contacting cells with Neu5Ac, on day 14 and day 21 after transfer, anti-PD-1 (100 ug/mouse) was administered to the mice that had received T cell transfer. The tumor growth was monitored every 3 to 4 days by measuring tumor size. Percent survival was also monitored and recorded within a period of 40 days post treatment. To evaluate tumor infiltrating OT-1 T cells, 0.6M B16-OVA cells (6×10^5) were inoculated subcutaneously 3 to 5 days before transfer in C57BL/6. On the day of adoptive transfer, mice were irradiated with 5 Gy X-ray, randomized according to tumor size, and intravenously injected with 0.2-0.3M of CD8+OT-1 T cells (2×10^5) expanded under different conditions, followed by administration of 50000 IU IL-2 every 12 h for four days. Tumors were then isolated and assessed for percentage of OT-I T cells from the total CD8+ T cells and OT-1 T cell number per gram of tumor tissue. To evaluate apoptosis, Naïve OT-1 splenocytes were stimulated by OVA257-264 (500 nM) without IL-2 in the presence of absence of sugars for 5 days followed by using Annexin V Apoptosis detection kit (Biolegend). […] To evaluate other cellular characteristics, naïve OT-1 splenocytes were stimulated by OVA257-264 (500 nM) with IL-2 (60 IU/mL) in the presence or absence of sugars for 7 or 8 days. On day 7 or 8 cells were taken and analyzed by assessment of ROS, NADPH/NADP+ ratio, and GSH/GSSG ratio.

## N#Cc1cc(Nc2ncc3c(n2)CCCCC3=O)cs1 [Inhibitor G6PDi-1, reference compound]
OT-I splenocytes; added on day 3, analyzed day 5
  cell proliferation: without significant impact on cell proliferation
  increase of the proportion of Tim3−TCF1+ T cells by a factor: 1.5

## [Cl-].[K+] [K^+, KCl]
P14 cells; compared to untreated T cells
  slowed down T cell proliferation: 10-20%
OT-1 cells [1]
  Tim3−TCF-1+ ratio of OT-1 cells (in words): increased
  proliferation of OT-1 cells (in words): slightly inhibit
OT-1 cells [1]; Day 7, 40 mM, OT-1 cells
  Proliferation fold, Normalized to W/O: 0.87 fold
OT-1 cells [1]; Day 7, 40 mM, W/O 9.5
  Tim3^−TCF-1^+ ratio of CD8^+ T cells (%): 80.7%

## OC[C@H]1O[C@@H](O[C@H]2[C@H](O)[C@@H](O)C(O)O[C@@H]2CO)[C@H](O)[C@@H](O)[C@H]1O (some centres unmarked) [Lactose, lactose]
OT-1 cells [2]; 60 mM
  Tim3^−TCF-1^+ ratio of CD8^+ T cells (%): 25.6%
OT-1 cells [2]; Mus musculus, Splenocyte, 168 h, 60 mM, OT-1 cells, read-out: Proliferation fold, Normalized to W/O
  activity at 60000 µM: 63%
P14 cells; Day6, 60 mM
  Fold of proliferation, Normalized to W/O: 1.87 fold
P14 cells; Day6, 60 mM, w/o 55.0
  Tim3^−TCF-1^+ ratio of CD8^+ T cells (%): 79.4%
P14 cells; Day9, 60 mM
  Fold of proliferation, Normalized to W/O: 1.76 fold
P14 cells; Day9, 60 mM, w/o 3.5
  Tim3^−TCF-1^+ ratio of CD8^+ T cells (%): 23.7%
P14 CD8+ T cells
  percentages and total numbers of expanded virus-specific P14 CD8+ T cells in the spleen and liver: significantly higher
OT-1 CD8+ T cells
  percentage of Tim3−TCF-1+ CD8+ T cells (in words): increased the percentage of Tim3−TCF-1+ CD8+ T cells but at a lower level
B16-OVA tumor
  capabilities to control tumor growth: significantly better

## CCN(c1cc(-c2ccc(CN3CCOCC3)cc2)cc(C(=O)NCc2c(C)cc(C)[nH]c2=O)c1C)C1CCOCC1 [Taz, Tazemetostat]
OT-I CD8 T cells
  cell survival when added on day 0 together with OVA257-264 peptide: all cells were found dead
OT-I CD8 T cells; day 7, Taz (3-7), 400 nM
  fold increase in progenitor exhausted cells: 2.5-3.5 fold
OT-I CD8 T cells; day 7, Taz (3-7), 400 nM, without Taz 8.47%
  progenitor exhausted cells (Tim3^−TCF-1^+): 27.7%

## OC[C@H]1O[C@H](O[C@H]2O[C@H](CO)[C@@H](O)[C@H](O)[C@H]2O)[C@H](O)[C@@H](O)[C@@H]1O [Trehalose, trehalose]
OT-1 cells [2]; 80 mM
  Tim3^−TCF-1^+ ratio of CD8^+ T cells (%): 35.4%
OT-1 cells [2]; Mus musculus, Splenocyte, 168 h, 80 mM, OT-1 cells, read-out: Proliferation fold, Normalized to W/O
  activity at 80000 µM: 84%
P14 cells; Day6, 80 mM
  Fold of proliferation, Normalized to W/O: 1.42 fold
P14 cells; Day6, 80 mM, w/o 55.0
  Tim3^−TCF-1^+ ratio of CD8^+ T cells (%): 83.2%
P14 cells; Day9, 80 mM
  Fold of proliferation, Normalized to W/O: 1.47 fold
P14 cells; Day9, 80 mM, w/o 3.5
  Tim3^−TCF-1^+ ratio of CD8^+ T cells (%): 34.6%

## Nc1nc2c(ncn2[C@@H]2O[C@H](CO)[C@@H](O)[C@H]2O)c(=O)[nH]1 [guanosine]
OT-I splenocytes; added together with N-Acetylneuraminic acid on day 3, analyzed day 5
  cell proliferation: without significant impact on cell proliferation
